Broadly, the pEC50 is the negative decadic logarithm of the EC50, by convention in mol/L. The term CC50 denotes the concentration giving 50% cytotoxicity. A low value points to harm at low concentration.

We go through seven compounds from patent publication US11634425B2, “Pharmaceutical compounds” (priority 2019, dated 2023).

pEC50: −log10 of the molar value. Like-named read-outs stand apart in the source and are kept apart here.

One series relates to RSV A2. Put plainly: RSV plaque reduction assay. Format: cell-based, respiratory syncytial virus (RSV). As to conditions: human respiratory syncytial virus, HepG2, Hep-G2 cells, mean of at least two experiments. In a few lines:
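RSV A2 at 100 PFU/well was premixed with eight compound dilutions and added to confluent Hep-G2 monolayers for 2 h at 37 °C. Cells were then kept 2 days under a DMEM/2% FBS/0.8% CMC overlay containing compound. Immunostained plaques were counted relative to virus controls, and EC50 came from 4-parameter fits, averaged over at least two experiments.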
(In general: Plaques are areas of infected cells; plaque reduction assays count them against a control.)

The nature of another series: in vitro. As to conditions: microsomes, pH 7.4, 1 μM compound, 0.5 mg/mL protein, read-out: Liver Microsomal Stability t1/2. Format: in vitro ADME. As to the method: Compounds were subjected to the following assays to investigate liver microsomal stability and hepatocyte stability.
Microsomal Incubation: Experimental Procedure
Pooled liver microsomes were purchased from a reputable commercial supplier and stored at −80° C. prior to use. Microsomes (final protein concentration 0.5 mg/mL), 0.1 M phosphate buffer pH 7.4 and test compound (final substrate concentration 1 μM; final DMSO concentration 0.25%) were pre-incubated at 37° C. prior to the addition of NADPH (final concentration 1 mM) to initiate the reaction. The final incubation volume was 50 μL. A control incubation was included for each compound tested where 0.1 M phosphate buffer pH 7.4 was added instead of NADPH (minus NADPH). Two control compounds were included with each species. All incubations were performed singularly for each test compound. Each compound was incubated for 0, 5, 15, 30 and 45 min. The control (minus NADPH) was incubated for 45 min only. The reactions were stopped by transferring incubate into acetonitrile at the appropriate time points, in a 1:3 ratio. The termination plates are centrifuged at 3,000 rpm for 20 min at 4° C. to precipitate the protein. Following protein precipitation, the sample supernatants were combined in cassettes of up to 4 compounds, internal standard added, and samples analysed by LC-MS/MS. From a plot of ln peak area ratio (compound peak area/internal standard peak area) against time, the gradient of the line was determined. Subsequently, half-life (t1/2) and intrinsic clearance (CLint) were calculated.
A general note: Liver microsomes are a subcellular fraction often used to study metabolism.

A short description of a further series: Cell cytotoxicity (CC50). Format: cell-based. Particulars: human; mean of at least two experiments. In a few lines:
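Values are means of ≥2 independent runs, rounded to whole units, from 4-parameter variable-slope curve fits. Toxicity measured in Hep-G2 cells run alongside RSV plaque-reduction assays.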

Regarding `Cc1ccn2nc(-c3ccc(F)cc3F)c(C(=O)N[C@H]3N=C(c4ccccc4)c4cccc(F)c4NC3=O)c2n1` [Example 36, 2-(2,4-Difluorophenyl)-N-[(3S)-9-fluoro-2-oxo-5-phenyl-1,3-dihydro-1,4-benzodiazepin-3-yl]-5-methylpyrazolo[1,5-a]pyrimidine-3-carboxamide], in the series on RSV A2, the negative logarithm of the EC50 (pEC50) was 7.57. Moreover, the half-life at 1 μM in the series “in vitro” (dog) was 3.7 h; in the series “in vitro” (human) it was more than 2.33 h; in the series “in vitro” (rat) it was 0.557 h. This compound also showed a CC50 in the series “Cell cytotoxicity (CC50)” of more than 25000 nM.

Compound `Cc1ccnc2c(C(=O)N[C@H]3N=C(c4ccccc4)c4ccccc4NC3=O)c(-c3ccccc3F)nn12` [Example 37, 2-(2-Fluorophenyl)-7-methyl-N-[(3S)-2-oxo-5-phenyl-1,3-dihydro-1,4-benzodiazepin-3-yl]pyrazolo[1,5-a]pyrimidine-3-carboxamide] gave a pEC50 with RSV A2 of 7.41. The half-life at 1 μM in “in vitro” (dog) was 1.95 h; in “in vitro” (human) it was more than 2.33 h; in “in vitro” (rat) it was 0.842 h. Also, in “Cell cytotoxicity (CC50)”, the cytotoxic concentration (CC50) was more than 25000 nM.

`O=C(N[C@H]1N=C(c2ccccc2)c2ccccc2NC1=O)c1c(-c2ccccc2F)nn2ccc(N3CCOCC3)nc12` [Example 39, 2-(2-Fluorophenyl)-5-(morpholin-4-yl)-N-[(3S)-2-oxo-5-phenyl-2,3-dihydro-1H-1,4-benzodiazepin-3-yl]pyrazolo[1,5-a]pyrimidine-3-carboxamide] showed a negative-log EC50 (pEC50) with RSV A2 of 7.21. For the same compound, the half-life at 1 μM came out at 0.255 h in “in vitro” (dog), 1.33 h in the series “in vitro” (human) and 0.538 h in the series “in vitro” (rat). For the same compound, in the series “Cell cytotoxicity (CC50)”, the cytotoxic concentration (CC50) was more than 25000 nM.

`O=C(N[C@H]1N=C(c2ccccc2)c2cccc(F)c2NC1=O)c1c(-c2cccc(F)c2F)nn2cccnc12` [Example 42, 2-(2,3-Difluorophenyl)-N-[(3S)-9-fluoro-2-oxo-5-phenyl-1,3-dihydro-1,4-benzodiazepin-3-yl]pyrazolo[1,5-a]pyrimidine-3-carboxamide]: in the series with RSV A2, the negative logarithm of the EC50 (pEC50) was 7.39. The half-life at 1 μM in “in vitro” (dog) is 12.2 h; in “in vitro” (human), more than 2.33 h; in “in vitro” (rat) it was 2.83 h. Moreover, in “Cell cytotoxicity (CC50)”, the cytotoxic concentration (CC50) was more than 14000 nM.

Turning to `O=C(N[C@H]1N=C(c2ccccc2)c2ccccc2NC1=O)c1c(-c2cccc(F)c2F)nn2cccnc12` [Example 43, 2-(2,3-Difluorophenyl)-N-[(3S)-2-oxo-5-phenyl-1,3-dihydro-1,4-benzodiazepin-3-yl]pyrazolo[1,5-a]pyrimidine-3-carboxamide], the pEC50 in the series with RSV A2 is 7.22. The half-life at 1 μM was determined as 0.97 h in “in vitro” (dog), 3.35 h in the series “in vitro” (human) and 41.5 h in the series “in vitro” (rat). In addition, the half-maximal cytotoxic concentration (CC50) in the series “Cell cytotoxicity (CC50)” was more than 25000 nM.

In the case of `O=C(N[C@H]1N=C(c2ccccc2)c2cccc(F)c2NC1=O)c1c(-c2c(F)cccc2F)nn2cccnc12` [Example 44, 2-(2,6-Difluorophenyl)-N-[(3S)-9-fluoro-2-oxo-5-phenyl-1,3-dihydro-1,4-benzodiazepin-3-yl]pyrazolo[1,5-a]pyrimidine-3-carboxamide], in the series on RSV A2, the pEC50 was 7.06. The figures for the half-life at 1 μM in “in vitro” (dog), in “in vitro” (human) and in “in vitro” (rat) were 12.5 h, 9.07 h and 3.85 h, respectively. Further, the CC50 in “Cell cytotoxicity (CC50)” was more than 25000 nM.

Turning to `O=C(N[C@H]1N=C(c2ccccc2)c2ccccc2NC1=O)c1c(-c2ccc(NC3CC3)nc2F)nn2cccnc12` [Example 48, 2-[6-(Cyclopropylamino)-2-fluoropyridin-3-yl]-N-[(3S)-2-oxo-5-phenyl-1,3-dihydro-1,4-benzodiazepin-3-yl]pyrazolo[1,5-a]pyrimidine-3-carboxamide], the negative-log EC50 (pEC50) in the series on RSV A2 is 7.89. Also, the half-life at 1 μM in “in vitro” (dog) came out at 0.37 h; in “in vitro” (human), 14.8 h; in the series “in vitro” (rat) it was 3.62 h. This compound also had a cytotoxic concentration (CC50) in “Cell cytotoxicity (CC50)” of more than 25000 nM.
